Laboratory results as given in PMC11161644, “An effective and rapidly degradable disinfectant from disinfection byproducts” (Nature Communications, 2024).
“And” between values parts separate entries of the source, which are not always exact repeats. Identical values can stand only once.

Assays:
[1] = tested on: P. dumerilii embryos; assay: Developmental toxicity assay with P. dumerilii embryos, dilution factor of in-use concentration (EC50,DF), also after degradation in darkness; assay type: in vivo, Platynereis dumerilii; settings: for Normal development: 2,6-DCQ
Description: The DBP doses for 3-log E. coli reduction (pH 7.2) were set as the in-use concentrations, which were serially diluted and added to the P. dumerilii embryos at 12-h postfertilization. A dilution factor was defined as the ratio of the in-use concentration to the exposure concentration. Each exposure set contained a control sample (i.e., the embryos at 12-h postfertilization developed in seawater without the addition of DBPs). By 24-h postfertilization, normally developed embryos should have reached the first larval stage. An inverted stereomicroscope (×40 magnification) was used to observe the larvae. The normal development percentage was calculated as the ratio of normally developed embryos to total embryos. By plotting the curve of the normal development percentage versus the dilution factor, the EC50,DF value (i.e., the dilution factor corresponding to 50% of the normal development percentage of the control sample) was obtained using SigmaPlot 12. The developmental toxicity test was conducted in duplicate.

[2] = tested on: S. aureus (ATCC 25923); assay: Inactivation of S. aureus (contact time 5 min); assay type: cell-based, Staphylococcus aureus; settings: pH 7.2, contact time 5 min
Method: (§1) The chemicals and reagents used are detailed in Supplementary Note 1. The bacteria E. coli (ATCC 25922) and S. aureus (ATCC 25923) were cultured aerobically in Luria-Bertani broth (Sigma-Aldrich) and Tryptone Soya broth (Oxoid), respectively, at 37 °C for 16 h. The fungus C. albicans (ATCC 14053) was aerobically cultured in Sabouraud Dextrose broth (Difco) at 37 °C for 24 h. The microorganism cells were harvested by centrifugation at 1200×g (10 min, 4 °C) and resuspended in phosphate-buffered saline (PBS, 10 mM, pH 7.2). The disinfection experiments were performed in PBS solutions (10 mM, pH 7.2) with an initial concentration of E. coli, S. aureus, or C. albicans of 10^6‒10^7 cells per milliliter. A contact time of 5 min was used in accordance with the recommended time range of 0.25–10 min by USEPA for surface disinfection. Preliminary tests were conducted to determine the appropriate range of DBP doses. The appropriate dose range was established when the lowest and highest doses could achieve <1-log and >3-log of microbial inactivation, respectively. Based on the preliminary results, a series of doses of DBPs were added to the cell suspensions at room temperature (22 ± 1 °C). After the contact time of 5 min, the microorganism cells were enumerated following a membrane filter method. Briefly, serial 10-fold dilutions were conducted for the disinfected samples and the control sample without disinfection. Each diluted suspension was subjected to filtration through 0.45-μm membrane, which was then placed on a petri dish. The Petri dishes containing E. coli, S. aureus, and C. albicans were incubated in m-FC medium (Becton Dickinson & Co) at 45 °C for 24 h, in Tryptone Soya broth at 37 °C for 24 h and in Sabouraud Dextrose broth at 37 °C for 24 h, respectively. After incubation, the colony-forming units within a statistically reasonable range (20–80) were counted.

[3] = Degradation in seawater in darkness (pH 6.2, 7.2, 8.2); settings: for half-life at 10 mg L−1: buffer; for Ln (C/C0): 0 h
Method: To study the DBP degradation in seawater in darkness, a DBP was added at 10 mg L^−1 to 50 mL pretreated seawater (pH 8.2) in the quartz flasks. The flasks were wrapped with aluminum foil to simulate the dark condition. The samples were kept at 20 °C in darkness for 0‒120 h, during which the sample was adjusted to pH 6.2 and 7.2 or maintained at pH 8.2 by adding 4 mM phosphate buffer (pH 6.2, 7.2, and 8.2, respectively).
For the DBP samples with and without sunlight, aliquots were taken at a specific reaction time. The sample aliquots were analyzed using Agilent high-performance liquid chromatography (HPLC) equipped with a Poroshell 120 EC-C18 column (4.6 × 150 mm, 4 µm particle size, Agilent) and a UV detector. The mobile phase, consisting of water (pre-adjusted to pH 2 with phosphoric acid) and acetonitrile at 50/50 (v/v), was applied at a flow rate of 1.0 mL min^−1. PCMX, 2,4-dihalophenols and 5-halosalicylic acids were detected at the wavelength of 230 nm. 2,5-Dihalohydroquinones and 2,6-DCQ were detected at the wavelength of 280 nm. All the degradation experiments were conducted in duplicate.

[4] = tested on: E. coli (ATCC 25922); assay: Inactivation of E. coli by disinfectants (membrane filter enumeration, contact time 5 min); assay type: cell-based, Escherichia coli
Method: as §1
The impact of pH on the disinfection efficiencies of DBPs was examined. E. coli (ATCC 25922) was used as the test strain. The disinfection experiments were performed in 10 mM PBS solutions (pH 6.2, 7.2, and 8.2) with an initial E. coli concentration of 10^6‒10^7 cells per milliliter. To initiate the disinfection, a DBP was dosed with a bacteria suspension at a predetermined concentration. After the given contact time (5 min) at room temperature (22 ± 1 °C), the bacteria were enumerated following the membrane filter method. The bacteria concentrations in the 10 mM PBS solutions (pH 6.2, 7.2, and 8.2) without the addition of DBPs were used as controls.

O=C1C=C(Cl)C(=O)C(Cl)=C1 [2,6-DCQ, 2,6-dichlorobenzoquinone]
Normal development ([1]; degradation 0 h, dilution factor 12.8): 7.407% and 6.667%
Normal development ([1]; degradation 0 h, dilution factor 17.0667): 16.2963% and 20.7921%
Normal development ([1]; degradation 0 h, dilution factor 21.3333): 42.1875% and 37.2727%
Normal development ([1]; degradation 0 h, dilution factor 25.6): 62.0155% and 62.3077%
Normal development ([1]; degradation 0 h, dilution factor 32): 80% and 80.822%
Normal development ([1]; degradation 0 h, dilution factor 42.6667): 76.7442% and 82.4428%
Normal development ([1]; degradation 1 h, dilution factor 6.4): 1.886% and 1.145%
Normal development ([1]; degradation 1 h, dilution factor 8.5333): 4.186% and 11.8136%
Normal development ([1]; degradation 1 h, dilution factor 10.6667): 24.138% and 24.6154%
Normal development ([1]; degradation 1 h, dilution factor 12.8): 51.5152% and 47.1698%
Normal development ([1]; degradation 1 h, dilution factor 16): 70.5883% and 65.2173%
Normal development ([1]; degradation 2 h, dilution factor 6.4): 11.0368% and 10.1754%
Normal development ([1]; degradation 2 h, dilution factor 8.5333): 46.773% and 42.9328%
Normal development ([1]; degradation 2 h, dilution factor 10.6667): 58.0645% and 64.2277%
Normal development ([1]; degradation 2 h, dilution factor 12.8): 77.7778% and 71.0938%
Normal development ([1]; degradation 2 h, dilution factor 16): 82.2282% and 85.1792%
Normal development ([1]; degradation 4 h, dilution factor 1.28): 3.429% and 2.688%
Normal development ([1]; degradation 4 h, dilution factor 1.6): 15.8884% and 20.3842%
Normal development ([1]; degradation 4 h, dilution factor 1.8286): 27.1674% and 32.6748%
Normal development ([1]; degradation 4 h, dilution factor 2.1333): 54.2087% and 56.2379%
Normal development ([1]; degradation 4 h, dilution factor 2.8444): 78.1453% and 71.7507%
Normal development ([1]; degradation 4 h, dilution factor 4.2667): 76.1253% and 77.0995%
Normal development ([1]; degradation 6 h, dilution factor 0.8): 0%
Normal development ([1]; degradation 6 h, dilution factor 0.9143): 0%
Normal development ([1]; degradation 6 h, dilution factor 1.0667): 6.421% and 4.805%
Normal development ([1]; degradation 6 h, dilution factor 1.28): 19.2308% and 16.923%
Normal development ([1]; degradation 6 h, dilution factor 1.6): 44.5256% and 45.8716%
Normal development ([1]; degradation 6 h, dilution factor 1.8286): 55.6999% and 52.4319%
Normal development ([1]; degradation 10 h, dilution factor 0.3657): 0%
Normal development ([1]; degradation 10 h, dilution factor 0.4267): 10.4446% and 5.949%
Normal development ([1]; degradation 10 h, dilution factor 0.512): 22.4806% and 12.844%
Normal development ([1]; degradation 10 h, dilution factor 0.64): 50% and 42.3728%
Normal development ([1]; degradation 10 h, dilution factor 0.8533): 73.1885% and 72.3577%
Normal development ([1]; degradation 10 h, dilution factor 1.28): 86.5288% and 89.8492%
Normal development ([1]; degradation 24 h, dilution factor 0.2844): 11.3922% and 10.426%
Normal development ([1]; degradation 24 h, dilution factor 0.32): 28.4579%
Normal development ([1]; degradation 24 h, dilution factor 0.3657): 46.3636% and 52.9132%
Normal development ([1]; degradation 24 h, dilution factor 0.4267): 72.0505% and 66.5657%
Normal development ([1]; degradation 24 h, dilution factor 0.512): 75.7656% and 68.6094%
Normal development ([1]; degradation 24 h, dilution factor 0.64): 71.3237% and 68.0033%
Normal development ([1]; degradation 48 h, dilution factor 0.2695): 37.7015% and 37.2985%
Normal development ([1]; degradation 48 h, dilution factor 0.2844): 52.938% and 47.9316%
Normal development ([1]; degradation 48 h, dilution factor 0.32): 57.0093% and 59.2105%
Normal development ([1]; degradation 48 h, dilution factor 0.3657): 74.6032% and 77.2414%
Normal development ([1]; degradation 48 h, dilution factor 0.4267): 81.3111% and 83.4889%
Toxicity relative to PCMX (times less toxic) ([1]; after 48-h degradation in seawater in darkness): 31 times
EC50,DF as share of EC50,DF of PCMX ([1]; after 48 h degradation in darkness): 3.0%
Dose for achieving 3-log inactivation of S. aureus [2]: 28.6 mg L−1
S. aureus inactivation rate constant k [2]: 20200 µL/min/mg
half-life at 10 mg L−1 ([3]; pH 6.2): 76.2 h
half-life at 10 mg L−1 ([3]; pH 7.2): 13.4 h
half-life at 10 mg L−1 ([3]; pH 8.2): 1.74 h
Degradation rate constant k ([3]; pH 6.2, without solar irradiation): 0.009 h⁻¹
Ln (C/C0) ([3]; pH 6.2 in darkness): 0
Ln (C/C0) ([3]; pH 7.2 in darkness): 0
Ln (C/C0) ([3]; seawater pH 8.2, darkness): 0
Degradation rate constant k ([3]; seawater pH 8.2, without solar irradiation): 0.397 h‒1
Disinfection efficiency relative to PCMX (ratio of doses for 3-log inactivation) ([4]; E. coli, S. aureus, C. albicans and MS2, pH 7.2, 5 min): 9.0–22 times
Log reduction (Mean ± SD) ([4]; E. coli, dose 7.5 mg L−1, pH 7.2, contact time 5 min): 0.76 ± 0.16
Log reduction (Mean ± SD) ([4]; E. coli, dose 15 mg L−1, pH 7.2, contact time 5 min): 4.24 ± 0.22
EC (3-log inactivation) ([4]; Escherichia coli, ATCC25922, 5 min, pH 7.2, read-out: Dose for achieving 3-log inactivation of E. coli): 12.8 µg/mL
E. coli inactivation rate constant k ([4]; pH 7.2, contact time 5 min): 5.50 L mg‒1 h‒1
